The subject of the assay is NCI-N87, a human gastric carcinoma cell line. To be noted: read-out: IC50 of NCI-N87 cells, 120 hours incubation, MTT. How it is done:
The inhibition % was calculated according to the following equation: inhibition %=[1-(assay-blank)/(control-blank)]×100.

The record followed here is patent US20230025327A1, “CONJUGATES OF TUBULYSIN DERIVATIVES AND CELL BINDING MOLECULES AND METHODS OF MAKING” (Hangzhou DAC Biotech Co., Ltd., priority 2019, published 2023).

T-DM1: the half-inhibitory concentration (IC50) was 0.32 nM.

As usually defined, the IC50 is the concentration that inhibits the measured activity by half.
